From patent US11591341B2 (ALIGOS THERAPEUTICS, INC., priority 2019, dated 2023)

System: HBV
Assay: HBV-DNA Antiviral Assay Using HepG2.117 Cells (intracellular HBV DNA by qPCR)
Format: cell-based, hepatitis B virus (genotype D)
Conditions: Hepatitis B virus, HepG2.117
How it was run: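 Endpoint: qPCR copy number of intracellular HBV DNA after 3-day compound exposure, with inhibition set relative to the 2% DMSO control. The cells were doxycycline-free HepG2.117 carrying a Tet-off genotype D genome, dosed at nine 4-fold dilutions. A duplicate plate gave ATP-based viability (CC50).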

| Structure (SMILES) | EC50 [nM] |
| --- | --- |
| COc1ccc(CNC(=O)c2c3n(c(=O)n2-c2ccc(OCC(F)(F)F)cc2)CCN(C(=O)c2ccc(Br)c(Cl)c2)C3)c(C)c1 [Example 246, 7-(4-bromo-3-chloro-benzoyl)-N-[(4-methoxy-2-methyl-phenyl)methyl]-3-oxo-2-[4-(2,2,2-trifluoroethoxy)phenyl]-6,8-dihydro-5H-imidazo[1,5-a]pyrazine-1-carboxamide] | 100 to 500 |
| O=C(NCc1ccccc1)c1c2n(c(=O)n1-c1ccc3sccc3c1)CCN(C(=O)c1ccc(Br)c(Cl)c1)C2 [Example 248] | 100 to 500 |
| COc1cc(C#N)ccc1CNC(=O)c1c2n(c(=O)n1-c1ccc(OCC(F)(F)F)cc1)CCN(C(=O)c1ccc(Br)c(Cl)c1)C2 [Example 249, 7-(4-bromo-3-chloro-benzoyl)-N-[(4-cyano-2-methoxy-phenyl)methyl]-3-oxo-2-[4-(2,2,2-trifluoroethoxy)phenyl]-6,8-dihydro-5H-imidazo[1,5-a]pyrazine-1-carboxamide] | 100 to 500 |
| COCCOc1ccc(-n2c(C(=O)NCc3ccccc3)c3n(c2=O)CCN(C(=O)c2ccc(Br)c(Cl)c2)C3)cc1 [Example 250, N-benzyl-7-(4-bromo-3-chloro-benzoyl)-2-[4-(2-methoxyethoxy)phenyl]-3-oxo-6,8-dihydro-5H-imidazo[1,5-a]pyrazine-1-carboxamide] | 100 to 500 |
| CCc1cc(OC)ccc1CNC(=O)c1c2n(c(=O)n1-c1ccc(OC)cc1)CCN(C(=O)c1ccc(Br)c(Cl)c1)C2 [Example 251, 7-(4-bromo-3-chloro-benzoyl)-N-[(2-ethyl-4-methoxy-phenyl)methyl]-2-(4-methoxyphenyl)-3-oxo-6,8-dihydro-5H-imidazo[1,5-a]pyrazine-1-carboxamide] | 100 to 500 |
| COc1cc2occc2cc1CNC(=O)c1c2n(c(=O)n1-c1ccc(OC(C)C)cc1)CCN(C(=O)c1ccc(Br)c(Cl)c1)C2 [Example 255, 7-(4-bromo-3-chloro-benzoyl)-2-(4-isopropoxyphenyl)-N-[(6-methoxybenzofuran-5-yl)methyl]-3-oxo-6,8-dihydro-5H-imidazo[1,5-a]pyrazine-1-carboxamide] | 100 to 500 |
| Cc1cc(-n2c(C(=O)NCc3ccccc3)c3n(c2=O)CCN(C(=O)c2ccc(Br)c(Cl)c2)C3)ccc1C#N [Example 257, N-benzyl-7-(4-bromo-3-chloro-benzoyl)-2-(4-cyano-3-methyl-phenyl)-3-oxo-6,8-dihydro-5H-imidazo[1,5-a]pyrazine-1-carboxamide] | 500 to 5000 |
| COc1ccc(CNC(=O)c2c3n(c(=O)n2-c2ccc(OCC(F)(F)F)cc2)CCN(C(=O)c2ccc(Br)c(Cl)c2)C3)c(-n2cccn2)c1 [Example 258, 7-(4-bromo-3-chloro-benzoyl)-N-[(4-methoxy-2-pyrazol-1-yl-phenyl)methyl]-3-oxo-2-[4-(2,2,2-trifluroethoxy)phenyl]-6,8-dihydro-5H-imidazo[1,5-a]pyrazine-1-carboxamide] | < 100 |
| COc1cccc(C)c1CNC(=O)c1c2n(c(=O)n1-c1ccc(OCC(F)(F)F)cc1)CCN(C(=O)c1ccc(Br)c(Cl)c1)C2 [Example 259, 7-(4-bromo-3-chloro-benzoyl)-N-[(2-methoxy-6-methyl-phenyl)methyl]-3-oxo-2-[4-(2,2,2-trifluoroethoxy)phenyl]-6,8-dihydro-5H-imidazo[1,5-a]pyrazine-1-carboxamide] | 100 to 500 |
| O=C(NCc1ccccc1)c1c2n(c(=O)n1-c1ccc(OCC(F)F)cc1)CCN(C(=O)c1ccc(Br)c(Cl)c1)C2 [Example 260, N-benzyl-7-(4-bromo-3-chloro-benzoyl)-2-[4-(2,2-difluoroethoxy)phenyl]-3-oxo-6,8-dihydro-5H-imidazo[1,5-a]pyrazine-1-carboxamide] | 500 to 5000 |
| O=C(NCc1ccccc1-n1ccnc1)c1c2n(c(=O)n1-c1ccc(OCC(F)(F)F)cc1)CCN(C(=O)c1ccc(Br)c(Cl)c1)C2 [Example 263, 7-(4-bromo-3-chloro-benzoyl)-N-[(2-imidazol-1-ylphenyl)methyl]-3-oxo-2-[4-(2,2,2-trifluoroethoxy)phenyl]-6,8-dihydro-5H-imidazo[1,5-a]pyrazine-1-carboxamide] | 500 to 5000 |
